Reference: the supplement of paper PMC10307832

Columns and labels:
Experiment in all cases: relative viability (nuclei count vs DMSO), 5 days (fraction); higher = more cells survive
201T = test system: 201T
Method in brief: (§1)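 Nuclei were stained with Hoechst during a one-step fixation (final 0.05% Triton X-100, 1% formaldehyde, 1 ug/ml Hoechst) carried out 5 days after dosing, then counted on 4× images. The cells, lung cancer lines in 1536-well plates, had been dosed by pin tool the day after seeding with one drug alone or a fixed anchor-drug dose plus five library-drug doses (not always all listed) in √10 steps. Relative viability is the nuclei count in treated wells divided by that in vehicle wells, and each value is the median of duplicate plates.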

ABC-1 = test system: ABC-1
Method in brief: as §1

BEN = test system: BEN
Method in brief: as §1

CAL-12T = test system: CAL-12T
Method in brief: as §1

COR-L 105 = test system: COR-L 105
Method in brief: as §1

COR-L23 = test system: COR-L23
Method in brief: as §1

EKVX = test system: EKVX
Method in brief: as §1

HARA = test system: HARA
Method in brief: as §1

HCC-366 = test system: HCC-366
Method in brief: as §1

LK-2 = test system: LK-2
Method in brief: as §1

LU99A = test system: LU99A
Method in brief: as §1

NCI-H1437 = test system: NCI-H1437
Method in brief: as §1

`CC1(C)CCC(c2ccc(Cl)cc2)=C(CN2CCN(c3ccc(C(=O)NS(=O)(=O)c4ccc(N[C@H](CCN5CCOCC5)CSc5ccccc5)c(S(=O)(=O)C(F)(F)F)c4)cc3)CC2)C1` [Navitoclax] + O=C(CCCCCCC(=O)Nc1ccccc1)NO [Vorinostat] (partner 1 µM) gave a relative viability (201T; first compound 0.005 µM) of 1.05, a relative viability (201T; first compound 0.01581 µM) of 1.12 and a relative viability (201T; first compound 0.05 µM) of 0.89. It also gave a relative viability (201T; first compound 0.1581 µM) of 0.937, a relative viability (201T; first compound 0.5 µM) of 1.02 and a relative viability (ABC-1; first compound 0.005 µM) of 1.22. For the same compound, the relative viability (ABC-1; first compound 0.01581 µM) was 1.34, the relative viability (ABC-1; first compound 0.05 µM) was 0.725 and the relative viability (ABC-1; first compound 0.1581 µM) was 1.41. For the same compound, the relative viability (ABC-1; first compound 0.5 µM) was 1.04, the relative viability (BEN; first compound 0.005 µM) was 0.617 and the relative viability (BEN; first compound 0.01581 µM) was 0.658. It also gave a relative viability (BEN; first compound 0.05 µM) of 0.593, a relative viability (BEN; first compound 0.1581 µM) of 0.572 and a relative viability (BEN; first compound 0.5 µM) of 0.417. For the same compound, the relative viability (CAL-12T; first compound 0.005 µM) was 0.73, the relative viability (CAL-12T; first compound 0.01581 µM) was 0.825 and the relative viability (CAL-12T; first compound 0.05 µM) was 0.901. It also gave a relative viability (CAL-12T; first compound 0.1581 µM) of 0.806, a relative viability (CAL-12T; first compound 0.5 µM) of 0.903 and a relative viability (COR-L 105; first compound 0.005 µM) of 0.853. The relative viability (COR-L 105; first compound 0.01581 µM) was 0.946, the relative viability (COR-L 105; first compound 0.05 µM) was 0.858 and the relative viability (COR-L 105; first compound 0.1581 µM) was 0.778. The relative viability (COR-L 105; first compound 0.5 µM) was 0.745, the relative viability (COR-L23; first compound 0.005 µM) was 0.475 and the relative viability (COR-L23; first compound 0.01581 µM) was 0.535. It also gave a relative viability (COR-L23; first compound 0.05 µM) of 0.425, a relative viability (COR-L23; first compound 0.1581 µM) of 0.386 and a relative viability (COR-L23; first compound 0.5 µM) of 0.411. For the same compound, the relative viability (EKVX; first compound 0.005 µM) was 0.735, the relative viability (EKVX; first compound 0.01581 µM) was 0.911 and the relative viability (EKVX; first compound 0.05 µM) was 0.668. It also gave a relative viability (EKVX; first compound 0.1581 µM) of 0.711, a relative viability (EKVX; first compound 0.5 µM) of 0.79 and a relative viability (HARA; first compound 0.005 µM) of 0.536. The relative viability (HARA; first compound 0.01581 µM) was 0.629, the relative viability (HARA; first compound 0.1581 µM) was 0.521 and the relative viability (HARA; first compound 0.5 µM) was 0.55. The relative viability (HCC-366; first compound 0.005 µM) was 0.302, the relative viability (HCC-366; first compound 0.01581 µM) was 0.356 and the relative viability (HCC-366; first compound 0.1581 µM) was 0.379. For the same compound, the relative viability (HCC-366; first compound 0.5 µM) was 0.306, the relative viability (LK-2; first compound 0.005 µM) was 0.293 and the relative viability (LK-2; first compound 0.01581 µM) was 0.33. The relative viability (LK-2; first compound 0.05 µM) was 0.367, the relative viability (LK-2; first compound 0.1581 µM) was 0.307 and the relative viability (LK-2; first compound 0.5 µM) was 0.277. For the same compound, the relative viability (LU99A; first compound 0.005 µM) was 0.487, the relative viability (LU99A; first compound 0.01581 µM) was 0.451 and the relative viability (LU99A; first compound 0.1581 µM) was 0.539. For the same compound, the relative viability (LU99A; first compound 0.5 µM) was 0.469, the relative viability (NCI-H1437; first compound 0.005 µM) was 0.834 and the relative viability (NCI-H1437; first compound 0.01581 µM) was 0.888. It also gave a relative viability (NCI-H1437; first compound 0.05 µM) of 0.847.
